Measurements: patent publication US10201559B2, “Compositions of selenoorganic compounds and methods of use thereof” (Alltech, Inc., priority 2014, dated 2019)
“Also recorded” adds a separate entry of the source.

Legend:
Nicastrin [1] = assay: Real-time RT-PCR, Nicastrin in IMR-32 cells; assay type: cell-based, human
Experimental: (§1) Human IMR-32 cells were seeded on gelatinized 6-well (6.5×10^5 cells/well) or 24-well (1.3×10^5 cells/well) plates, while mouse liver AML-12 cells were cultured on uncoated 6-well (3.33×10^5 cells/well) or 24-well (6.7×10^4 cells/well) plates. Cells were treated with vehicle (control) or various compounds for 6, 24 or 48 hr. Total RNA from these cells was using Trizol (Invitrogen) according to the Manufacturer's protocol, and then incubated with DNase I to remove any potential contaminated genomic DNA. Then RNA samples were subjected to real-time PCR analysis using the Applied-Bioscience's RT kit and predesigned Taqman probes (Invitrogen), as described previously (Lan et al EMBO J 2003). Three to six samples were analyzed in each treatment group. Data were normalized by Actin B (Actb) or Glyceraldehyde Phosphate Dehydrogenase (Gapdh) levels in each sample, and are presented as mean±sem of 3-6 samples.

pAKT [2] = assay: Western blot, pAKT in AML-12 cells; assay type: cell-based, mouse; conditions: for increased phosphorylation of AKT: individual compounds, 6 or 24 hr
Experimental: (§2) IMR-32 and AML12 cells were seeded on 6-well plates, and then treated with vehicle and various compounds for 6 and 24 hr, as described above. After treatments, cells were rinsed with ice-cold PBS, and lysed in the ice-cold RIPA buffer containing complete proteinase and phosphotase inhibitors (Themo-Fisher Scientific, Waltham, Mass.) on ice for 30 min. Cell lysates were collected using a cell scraper and transfer pipette, and then centrifuged at 12000 g for 30 min at 4° C. to remove the DNA pellet and obtain the protein extract. Protein levels in the supernatant of these cell lysates were determined using the Pierce Micro-BCA protein assay kit (Themo Scientific-Piece Biotechnology, Rockford, Ill.) according to the manufacturer's protocol.
(§3) For Western blot analysis, five micrograms of total proteins from vehicle- and compound(s)-treated cells were subjected to SDS-PAGE gel separation, and then transferred to PVDF membranes, as described previously (Reddy, Liu et al. 2008 Science). Membranes were blocked in a phosphate-buffered saline (PBS) containing 5% (w/v) of bovine serum albumin (Sigma, St. Louis, Mo.), and incubated with specific primary antibodies followed by the incubation with HRP-conjugated anti-mouse or anti-rabbit secondary antibodies (1:5000 dilution, Cell Signaling Inc.). All primary antibodies except G6PC (Santa Cruz), Actb (Li-COR, Lincoln, Nebr.), Elf2bε and pElf2bε (Abcam, Cambridge, Mass.) were purchased from Cell Signaling Inc. Positive signals on the membrane blots were detected using the Amersham's enhanced chemiluminescence Western Blotting Prime Detection reagents (GE healthcare Lifescience, Pittsburgh, Pa.). Images of these luminescence signals on the membrane blots were captured using the LI-COR Odyssey Fc Image system (Lincoln, Nebr.). The same membrane blot was striped and re-blotted with another antibody as described in the GE WB ECL-prime-detection protocol (GE healthcare Lifescience, Pittsburgh, Pa.). Protein band densities in the Western blots were determined using the Li-COR Image studio software or NIH ImageJ software, and then normalized by Actb level in each sample. Data are presented as mean±sem of three samples per each group.

pGSK3b = assay: Western blot, pGSK3b in AML-12 cells; assay type: cell-based, mouse; conditions: individual compounds, 6 or 24 hr
Experimental: as §2
as §3, with “The same membrane blot was striped and re-blotted with another antibody as described in the GE WB ECL-prime-detection protocol (GE healthcare Lifescience, Pittsburgh, Pa.).” left out, “Data are presented as mean±sem of three samples per each group.” left out

AML-12 cells = assay: Cell viability assay, AML-12; assay type: cell-based, mouse; conditions: 48 hr
Experimental: (§4) Cell viability in cultured cells was determined using Promega's CellTiter96® AQueous One Solution Cell Proliferation Assay kits, according to the Manufacturer's protocol. In brief, equal number of C2C12 (1×10^4 cells/well), AML-12 (1×10^4 cells/well) and IMR-32 (2×10^4 cells/well) were seeded on 96-well clear plates (VWR) and treated with vehicle or compounds for 24, […] and/or 72 hr. Then, cultured cells were incubated with AQueous One solution (100 ul/per well) at 37° C. for 1 hr, and the absorbance of OD490 nm in each sample was determined by the Bio-Tek microplate reader. Cell viability in culture cells were determined by the subtraction of OD490 nm in cultured cells with the OD490 nm in plain culture media (without seeding of cells). Eight samples per each treatment were examined for the above analysis. Data are presented as Mean±sem of eight samples.

Nicastrin [3] = assay: Western blot, Nicastrin in IMR-32 cells; assay type: cell-based, human; conditions: 150 ppb, 24 hr
Experimental: as §2
as §3, with “The same membrane blot was striped and re-blotted with another antibody as described in the GE WB ECL-prime-detection protocol (GE healthcare Lifescience, Pittsburgh, Pa.).” left out, “Data are presented as mean±sem of three samples per each group.” left out

pFOXOs = assay: Western blot, FOXO phosphorylation (pFOXOs) in AML-12 cells treated with individual compounds; assay type: cell-based, mouse; conditions: 150 ppb, 6 or 24 hr
Experimental: as §2
as §3, with “The same membrane blot was striped and re-blotted with another antibody as described in the GE WB ECL-prime-detection protocol (GE healthcare Lifescience, Pittsburgh, Pa.).” left out, “Data are presented as mean±sem of three samples per each group.” left out

Gsk3b = assay: Real-time RT-PCR, Gsk3b in IMR-32 cells; assay type: cell-based, human
Experimental: as §1

pGSk3a = assay: Western blot, pGSk3a in AML-12 cells; assay type: cell-based, mouse; conditions: individual compounds, 6 or 24 hr
Experimental: as §2
as §3, with “The same membrane blot was striped and re-blotted with another antibody as described in the GE WB ECL-prime-detection protocol (GE healthcare Lifescience, Pittsburgh, Pa.).” left out, “Data are presented as mean±sem of three samples per each group.” left out

pElf2beS539 = assay: Western blot, pElf2beS539 in IMR-32 cells; assay type: cell-based, human; conditions: 150 ppb
Experimental: as §2
as §3, with “The same membrane blot was striped and re-blotted with another antibody as described in the GE WB ECL-prime-detection protocol (GE healthcare Lifescience, Pittsburgh, Pa.).” left out, “Data are presented as mean±sem of three samples per each group.” left out

IMR-32 cells [4] = assay: Quantitative analysis of mitochondrial potential in IMR-32 cells; assay type: cell-based, human; conditions: for enhanced MT potential compared with sulfur analogs: 24 hr
Experimental: Similar to the above studies on AML-12 cells, the mitochondrial potential per cell in living IMR-32 cells was determined using the Bio-TeK Synergy HT Multi-Mode fluorescence microplate reader with the following modifications. To improve the attachment of IMR-32 cells to culture dishes, cell culture plates were precoated with 0.1% gelatin (Sigma, St. Louis, Mo.). 2×10^4 cells per a 96-well were seeded on gelatinized 96-well plates for the above studies. To reduce the cell dislodgment, Mitotracker orange and Hoechst 33342 fluorescent dyes (diluted in culture media) were directly added to each well after vehicle- or compound-treatments. After dye incubation, cell culture media were carefully replaced with 1× PBS for the quantitation analysis of fluorescence on the microplate reader. Eight samples per each treatment were examined for the above analysis, and the experiments were repeated at least five times. Data are presented as mean±sem of eight samples.

pAKT [5] = assay: Western blot, pAKT in IMR-32 cells; assay type: cell-based, human; conditions: 150 ppb
Experimental: as §2
as §3, with “The same membrane blot was striped and re-blotted with another antibody as described in the GE WB ECL-prime-detection protocol (GE healthcare Lifescience, Pittsburgh, Pa.).” left out, “Data are presented as mean±sem of three samples per each group.” left out

total Tau = assay: Western blot, total Tau in IMR-32 cells; assay type: cell-based, human; conditions: 150 ppb, 24 hr
Experimental: as §2
as §3, with “The same membrane blot was striped and re-blotted with another antibody as described in the GE WB ECL-prime-detection protocol (GE healthcare Lifescience, Pittsburgh, Pa.).” left out, “Data are presented as mean±sem of three samples per each group.” left out

pTau S400/T403/S404 = assay: Western blot, pTau S400/T403/S404 in IMR-32 cells; assay type: cell-based, human; conditions: 150 ppb, 24 hr
Experimental: as §2
as §3, with “The same membrane blot was striped and re-blotted with another antibody as described in the GE WB ECL-prime-detection protocol (GE healthcare Lifescience, Pittsburgh, Pa.).” left out, “Data are presented as mean±sem of three samples per each group.” left out

total FOXO = assay: Western blot, total FOXO in IMR-32 cells; assay type: cell-based, human; conditions: 150 ppb (of each compound)
Experimental: as §2
as §3, with “The same membrane blot was striped and re-blotted with another antibody as described in the GE WB ECL-prime-detection protocol (GE healthcare Lifescience, Pittsburgh, Pa.).” left out, “Data are presented as mean±sem of three samples per each group.” left out

IMR-32 cells [6] = assay: Cell viability assay, IMR-32; assay type: cell-based, human; conditions: 24, 48 and 72 hr
Experimental: as §4

pElf2be = assay: Western blot, pElf2be S539 in AML-12 cells; assay type: cell-based, mouse; conditions: for increased phosphorylation of Elf2be: individual compounds, 6 or 24 hr
Experimental: as §2, §3

pFOXO4 T28 = assay: Western blot, pFOXO4 T28 in IMR-32 cells; assay type: cell-based, human; conditions: individual compound, 150 ppb
Experimental: as §2, §3

[7] = continuous 48 hr single treatment

SMILES | Nicastrin mRNA expression (Nicastrin [1]; 24 hr) | increased phosphorylation of AKT (pAKT [2]) | increased phosphorylation of Gsk3b (pGSK3b) | cell viability (OD490 nm) (AML-12 cells) | Nicastrin protein level (Nicastrin [3]) | FOXO phosphorylation (increased pFOXOs) (pFOXOs) | Gsk3b mRNA expression (Gsk3b; 6 hr) | Gsk3b mRNA expression (Gsk3b; 24 hr) | increased phosphorylation of Gsk3a (pGSk3a) | pElf2beS539 protein level (pElf2beS539) | MT potential (IMR-32 cells [4]; 6 hr, compared to control) | enhanced MT potential compared with sulfur analogs (IMR-32 cells [4]) | MT potential (IMR-32 cells [4]; [7]) | pAKT protein levels (pAKT [5]) | total Tau protein level (total Tau) | phosphorylation of Tau at S400/T403/S404 (pTau S400/T403/S404) | total FOXO levels (total FOXO) | cell viability (OD490 nm) (IMR-32 cells [6]) | increased phosphorylation of Elf2be (pElf2be) | decrease of pFoxo4 (pFOXO4 T28) levels (pFOXO4 T28; 6 hr) | also measured
C[Se]C[C@H]1O[C@@H](n2cnc3c(N)ncnc32)C(O)C1O (stereo in doubt) [compound C, 5′-Methylselenoadenosine] | significant decrease in Nicastrin mRNA expression | did not observed the increased phosphorylation | did not observed the increased phosphorylation | no toxic effects | significant reduction | did not increase FOXO phosphorylation | significantly decreased | trend of decreased Gsk3b mRNA expression | did not observed the increased phosphorylation | not affected | a trend towards elevated MT potential | more pronounced | did not affect MT potential | not visibly decreased | did not affect total Tau protein level | significantly inhibited the phosphorylation of Tau at S400/T403/S404 | neither the CDE combination nor the individual C, D or E treatments brought about any change | lack of toxic effects; also recorded: Improved neuronal cell survival | did not observed the increased phosphorylation | statistically significant | Nicastrin mRNA expression (Nicastrin [1]; 6 hr): trend towards reduced Nicastrin mRNA expression; decrease of pFoxo4 (pFOXO4 T28) levels (pFOXO4 T28; 24 hr): statistically significant
Nc1ncnc2c1ncn2[C@@H]1O[C@H](C[Se]CC[C@@H](N)C(=O)O)C(O)C1O (stereo partly drawn) [compound D, 5′-Selenoadenosyl homocysteine] | did not inhibit, but instead stimulated | did not observed the increased phosphorylation | did not observed the increased phosphorylation | no toxic effects | trend towards reduced Nicastrin protein expression | did not increase FOXO phosphorylation | did not significantly inhibit Gsk3b mRNA expression | significant increase of Gsk3b mRNA expression | did not observed the increased phosphorylation | not affected | significantly enhanced MT potential | more pronounced | did not affect MT potential | not visibly decreased | had no effect | had no effect on Tau phosphorylation at all tested serine/threonine residues | neither the CDE combination nor the individual C, D or E treatments brought about any change | lack of toxic effects | did not observed the increased phosphorylation | statistically significant | enhanced MT potential compared with respective sulfur analog(s) (IMR-32 cells [4]; 6 hr): more pronounced; MT potential (IMR-32 cells [4]; repeated treatments (24 hr + 24 hr), 15 and 150 ppb): significantly enhanced MT potential
C[Se]CC(NC(=O)CCC(N)C(=O)O)C(=O)O (stereo not drawn) [compound E, gamma-glutamyl-methylseleno-cysteine] | did not inhibit, but instead stimulated | did not observed the increased phosphorylation | did not observed the increased phosphorylation | no toxic effects | trend towards reduced Nicastrin protein expression | did not increase FOXO phosphorylation | did not significantly inhibit Gsk3b mRNA expression | significant increase of Gsk3b mRNA expression | did not observed the increased phosphorylation | not affected | significantly enhanced MT potential | more pronounced | did not affect MT potential | not visibly decreased | significantly down-regulated | significantly down-regulated | neither the CDE combination nor the individual C, D or E treatments brought about any change | lack of toxic effects | did not observed the increased phosphorylation | statistically significant | levels of pAKT (pAKT [2]; individual compound, 6 hr): slightly reduce; enhanced MT potential compared with respective sulfur analog(s) (IMR-32 cells [4]; 6 hr): more pronounced; MT potential (IMR-32 cells [4]; repeated treatments (24 hr + 24 hr), 150 ppb): significantly enhanced MT potential; levels of pElf2bε S539 (pElf2be; individual compound, 6 hr): slightly reduce; decrease of pFoxo4 (pFOXO4 T28) levels (pFOXO4 T28; 24 hr): statistically significant
